Results on 18 compounds are retold here after doi:10.1101/2025.02.03.636334v1 (biorxiv, 2025).

Values after ≈ are worked out from the molar mass of the structure shown. A value given as a limit tells only on which side of the number the result lay.

Test [1] deals with T1, KasA (Mycobacterium tuberculosis, UniProt P9WQD9).
T1 sequence (P9WQD9 1-416): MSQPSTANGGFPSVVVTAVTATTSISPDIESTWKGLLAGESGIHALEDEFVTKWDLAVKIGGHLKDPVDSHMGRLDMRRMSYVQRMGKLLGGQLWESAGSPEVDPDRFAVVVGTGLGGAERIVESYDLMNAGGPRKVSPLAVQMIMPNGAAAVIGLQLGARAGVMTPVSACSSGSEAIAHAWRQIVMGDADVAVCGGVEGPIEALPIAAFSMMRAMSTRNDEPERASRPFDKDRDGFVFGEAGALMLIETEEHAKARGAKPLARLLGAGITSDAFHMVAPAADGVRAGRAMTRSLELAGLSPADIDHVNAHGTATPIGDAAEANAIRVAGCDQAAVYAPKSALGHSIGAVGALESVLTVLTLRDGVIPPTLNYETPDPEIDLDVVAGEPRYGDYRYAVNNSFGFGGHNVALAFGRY
Kind of test: biochemical. The settings on record: read-out: % KasA Inhibition at 25 µM Compound.

The test system of another test is M. tuberculosis H37Rv. Description: microbe, parasite or virus in culture. As to conditions: Mycobacterium tuberculosis, 192 h, read-out: Mtb MIC (µM).
Test [2] has as its target T2, MabA (Mycobacterium tuberculosis, UniProt P9WGT3). Description: biochemical. As to conditions: read-out: % of control remaining.
The target of test [3] is T2, MabA. Kind of test: MabA NADPH oxidation at […] nm. In kind it is biochemical.
For test [4], the target named is T1, KasA. Kind of test: KasA-MabA coupled assay, NADPH at […] nm. In kind it is biochemical. The settings on record: read-out: % inhibition at 25 μM.
Test [5] concerns the target T1, KasA. Description: microscale thermophoresis, RED-NHS labelled KasA. In kind it is binding.

T2 sequence (P9WGT3 whole entry): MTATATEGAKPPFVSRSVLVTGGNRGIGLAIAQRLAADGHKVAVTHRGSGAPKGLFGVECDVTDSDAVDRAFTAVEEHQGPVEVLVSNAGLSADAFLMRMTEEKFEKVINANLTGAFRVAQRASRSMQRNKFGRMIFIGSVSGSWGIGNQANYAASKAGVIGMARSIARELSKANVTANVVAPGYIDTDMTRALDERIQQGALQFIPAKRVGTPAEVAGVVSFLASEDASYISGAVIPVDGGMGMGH

On to `O=C(C1=C2SC=C(c3ccccc3)N2CCCC1)c1cc(-c2ccccc2Cl)nc2ccccc12` [Z56802551], for which, at KasA [1], the inhibition at 25 µM turned out to be 15.6 ± 11.1%. For the same compound, the MIC with M. tuberculosis H37Rv came to 12 µM (≈ 5.94 µg/mL). The remaining activity at 25 µM at MabA [2] stood at 104 ± 22.4%.

In turn, `C(=N\Nc1nc(-c2ccccc2)c2ccccc2n1)/c1cccc2cccnc12` [Z1033301210] yielded an IC50 on MabA [3] of more than 100 µM. The inhibition at 25 µM on KasA [1] came out at 46.7 ± 12.5%. For the same compound, the MIC with M. tuberculosis H37Rv stood at 12 µM (≈ 4.51 µg/mL). The remaining activity at 25 µM at MabA [2] was found to be 68.4 ± 16.8%.

With `O=C(Nc1ccc2c(c1)OCO2)C1CCN(C(=O)c2cc(-c3ccc(F)cc3)nc3ccccc23)CC1` [Z99494149], the inhibition at 25 µM at KasA [1] stood at 12 ± 8.8%. Moreover, the MIC in the test on M. tuberculosis H37Rv came to 3.1 µM (≈ 1.54 µg/mL). Further, the remaining activity at 25 µM at MabA [2] is 95.5 ± 15%.

Turning to `O=C(Nc1nc(-c2ccccn2)cs1)c1cc(-c2ccccc2)nc2ccc(Br)cc12` [Z29466477], the inhibition at 25 µM on KasA [1] stood at 15.3 ± 12.8%. Further, in the test on M. tuberculosis H37Rv, the MIC was determined as 0.12 µM (≈ 0.0585 µg/mL). The remaining activity at 25 µM at MabA [2] was 92.1 ± 16.2%.

Consider `O=C(Nc1nc(-c2ccccn2)cs1)c1cc(-c2ccccc2)nc2ccc(Br)cc12` [JSF-5071, 6-bromo-2-phenyl-N-(4-(pyridin-2-yl)thiazol-2-yl)quinoline-4-carboxamide], for which the inhibition at 25 µM on KasA [4] was determined as 12.7 ± 4.8%. The compound also returned a Kd on KasA [5] of 4.78 ± 1.3 µM.

As to `O=C(Nc1ccc(S(=O)(=O)Nc2cccc(C(F)(F)F)c2)cc1)c1cc2ccccc2oc1=O` [Z31753778], the inhibition at 25 µM at KasA [1] is 12 ± 8.8%. In addition, the MIC in the test with M. tuberculosis H37Rv amounted to 0.78 µM (≈ 0.381 µg/mL). In addition, the remaining activity at 25 µM on MabA [2] turned out to be 97.9 ± 14.6%.

With `Clc1ccc(-c2cc(Nc3ccccc3Cl)nc3ccccc23)cc1` [Z1143441182], on KasA [1], the inhibition at 25 µM amounted to 13.9 ± 12%. In the test with M. tuberculosis H37Rv, the MIC turned out to be 12 µM (≈ 4.38 µg/mL). In addition, the remaining activity at 25 µM on MabA [2] turned out to be 105 ± 19.7%.

With `O=C(Nc1nc(-c2cccc(C(F)(F)F)c2)cs1)C1CCN(C(=O)c2ccc(F)cc2)CC1` [Z318114792], the inhibition at 25 µM at KasA [1] was determined as 4.72 ± 3%. In addition, in the test with M. tuberculosis H37Rv, the MIC amounted to 12 µM (≈ 5.73 µg/mL). The remaining activity at 25 µM at MabA [2] stood at 102 ± 16.8%.

`O=C(c1cc(-c2ccc(F)cc2)nc2ccccc12)N1CCC(NS(=O)(=O)c2cccs2)CC1` [Z212116604]: the inhibition at 25 µM on KasA [1] was 14.7 ± 9.6%. Moreover, the MIC in the test with M. tuberculosis H37Rv worked out at 12 µM (≈ 5.95 µg/mL). Moreover, on MabA [2], the remaining activity at 25 µM is 99.4 ± 15%.

Take `O=C(Nc1ccc(O)cc1)C1CCN(C(=O)c2cccc(Oc3cccc(C(F)(F)F)c3)c2)CC1` [Z979305278]: on KasA [1], the inhibition at 25 µM worked out at 31.2 ± 9.3%. Besides, the MIC in the test with M. tuberculosis H37Rv amounted to 12 µM (≈ 5.81 µg/mL). In addition, the remaining activity at 25 µM on MabA [2] was 97.8 ± 16.3%.

As to `Cc1ccc(-c2cc(-c3c(O)nc4ccccc4c3-c3ccccc3)nc3ccccc23)cc1` [Z1702969146], the inhibition at 25 µM at KasA [1] was found to be 27.1 ± 8.1%. In the test on M. tuberculosis H37Rv, the MIC is 12 µM (≈ 5.26 µg/mL). The remaining activity at 25 µM on MabA [2] turned out to be 101 ± 17.6%.

For the compound `O=C(NNc1ccc(F)cc1)c1cccc(S(=O)(=O)N2CCc3ccccc3C2)c1` [Z30877419], in the test on M. tuberculosis H37Rv, the MIC stood at 100 µM (≈ 42.5 µg/mL).

On to `O=C(N[C@@H](Cc1ccccc1)c1nc2ccccc2[nH]1)c1ccc(-c2cccc(C(F)(F)F)c2)o1` [Z57992786], for which, in the test with M. tuberculosis H37Rv, the MIC turned out to be 100 µM (≈ 47.5 µg/mL).

`Cc1ccc(-c2cc(C(=O)N3CCC(C(=O)Nc4ccc5c(c4)OCO5)CC3)c3ccccc3n2)o1` [Z99494285]: the MIC with M. tuberculosis H37Rv came to 100 µM (≈ 48.4 µg/mL).

`O=c1[nH]c(SCc2cn(-c3ccccc3)nc2-c2ccccc2)nc2c1cnn2-c1ccccc1` [Z150144208]: in the test with M. tuberculosis H37Rv, the MIC was determined as 3.1 µM (≈ 1.48 µg/mL).

Consider `Clc1ccc2nc(N3N=C(c4ccccc4)CC3c3cccc(Br)c3)nc(-c3ccccc3)c2c1` (stereo not drawn) [Z1558470019], for which the MIC with M. tuberculosis H37Rv was found to be 100 µM (≈ 54 µg/mL).

Consider `Cc1ccc(-c2cc(C(=O)N3CCC(C(=O)Nc4ccc5c(c4)OCO5)CC3)c3ccccc3n2)cc1` [Z99494139], for which the inhibition at 25 µM at KasA [1] worked out at 11.5 ± 7%. In addition, the MIC in the test with M. tuberculosis H37Rv turned out to be 1.5 µM (≈ 0.74 µg/mL). In addition, at MabA [2], the remaining activity at 25 µM is 101 ± 20.4%.

As for `O=C(/C=C/c1cn(-c2ccccc2)nc1-c1ccc(F)cc1)N1CCCS/C1=N\c1ccccc1` [Z27871611], the MIC in the test on M. tuberculosis H37Rv stood at 100 µM (≈ 48.3 µg/mL).
